The values that follow come from patent US4450160A, “1,2-Dihydropyrido[3,4-b]-pyrazines and method and intermediates for preparing same” (Southern Research Institute, priority 1982, dated 1984).

The structures appear in SMILES notation. Bounds are passed on as bounds.

The test system of data set [1] is lymphoid leukemia L1210 cells. Nature of the data set: inhibition of proliferation of cultured lymphoid leukemia L1210 cells. The note with it: Mus musculus, concentration that inhibits proliferation to 50% of control growth, 24 hours, (g) = average of 2 determinations, read-out: L1210 ID50. Type of data set: cell-based.
Description: (b) Concentration of agent that inhibits proliferation of cultured lymphoi
leukemia L1210 cells to 50% control growth.
Data set [2] has as its system cultured lymphoid leukemia L1210 cells. The data set is described as follows: Mitotic Index, fraction of cultured L1210 cells in mitoses (metaphase). It is filed as cell-based.
In data set [3] the test system is Lymphocytic leukemia P388. Nature of the data set: P388 lymphocytic leukemia, 10^6 tumor cell implant, i.p., % ILS. Type of data set: in vivo, mice. The source says: (d) Lymphocytic leukemia p388. Geran, R. I., Greenberg, N. H., MacDonald,
M. M., Schulacker, A. M., Abott, B. J., Cancer Chemother. Rep., 1972, Par

The next data set deals with KB cell culture. The note with it: abstract, Gatlinburg 1976; cited from earlier work.
Another data set concerns leukemia L1210. As to conditions: mouse, in vivo; cited from earlier work.
Data set [4] has as its system P388 cells that were resistant to vincristine. Nature of the data set: vincristine-resistant line of P388 in mice. It is filed as in vivo. The source says:
(h) Vincristineresistant line of P388. Wilkoff, L. J. and Dulmadge, E. A.,

In another data set the test system is Asperigillus niger. Nature of the data set: antifungal activity. Type of data set: cell-based. How it is done:
(§1) The 1,2-dihydropyrido[3,4-b]pyrazines at concentrations that prevented any increase in the cell number during a 24 hour period had little effect upon the synthesis of DNA, RNA, and protein by cultured L1210 cells during exposure for four hours. […] Exposure of cultured L1210 cells to the 1,2-dihydropyrido[3,4-b]pyrazines inhibited cell division as measured by the mitotic index (MI) (Table V), which is the fraction of the cell population that is made up of metaphase cells. […] For example, 5-amino-1,2-dihydro-3-phenylpyrido[3,4-b]pyrazin-7-ylcarbamate was active against Saccharomyces cerevisiae, Asperigillus niger, Penicillium italicum and Botrytis cinereae.

Another data set relates to Botrytis cinereae. Nature of the data set: antifungal activity. Type of data set: cell-based. How it is done: as §1
In a further data set the test system is Penicillium italicum. Nature of the data set: antifungal activity. It is filed as cell-based. Here is the method:
as §1

The test system of a further data set is Saccharomyces cerevisiae. The data set is described as follows: antifungal activity. It is filed as cell-based. Here is the method: as §1
Setting [5] is: Mus musculus, P388, ip, i.p. implant, days 1-9.
Where [6] appears, read: Mus musculus, P388, ip, i.p. implant, days 1-5, 10 mg/kg.
[7] abbreviates: Mus musculus, P388, ip, i.p. implant, days 1-5.
[8] abbreviates: Mus musculus, P388, ip, 24 h, i.p. implant, day 1.

One may read the ILS as how much longer treated animals lived than controls. Take `CCOC(=O)Nc1cc2c(c(N)n1)N=C(c1ccc(C)cc1C)CN2` [2,4-(CH3)2 C6 H3]: in data set [1], the IC50 came to 0.042 µM. Moreover, the “Mitotic Index 12h” value in [2] (0.1 μM) came out at 0.66. Further, the ILS at 20 mg/kg in data set [3] (Mus musculus, P388, ip, i.p. implant, days 1-5, 20 mg/kg (highest dose tested)) stood at 23%.

With `CCOC(=O)Nc1cc2c(c(N)n1)N=C(c1cc(OC)c(OC)c(OC)c1)CN2` [3,4,5-(CH3 O)3 C6 H2], the “Mitotic Index 12h” value in [2] (0.3 μM) was determined as 0.41.

Consider `CCOC(=O)Nc1cc2c(c(N)n1)N=C(c1ccc(C(F)(F)F)cc1)CN2` [4-CF3 C6 H4, ethyl 5-amino-1,2-dihydro-3-[4'-(trifluoromethyl)phenyl]pyrido[3,4-b]pyrazin-7-ylcarbamate], for which the IC50 in data set [1] was 0.15 µM. For the same compound, the “Mitotic Index 24h” value in [2] (0.3 μM) is given as 0.01. This compound also had an ILS at 90 mg/kg in [3] (Mus musculus, P388, ip, 24 h, i.p. implant, day 1, 90 mg/kg (highest dose tested)) of 0%. The same compound gave an increase in lifespan (ILS) at 30 mg/kg in data set [3] (Mus musculus, P388, ip, i.p. implant, days 1,5,9, 30 mg/kg (highest dose tested)) of 0%. This compound also showed an ILS at 50 mg/kg in [3] (setting [5]) of 17%.

In the case of `CCOC(=O)Nc1cc2c(c(N)n1)N=C(c1ccc3ccccc3c1)CN2` [2-C10 H7], the IC50 in [1] was 0.006 µM. In data set [2] (0.03 μM), the “Mitotic Index 12h” value turned out to be 0.60. In [3] (Mus musculus, P388, ip, i.p. implant, days 1-5, 5 mg/kg), this compound had an ILS at 5 mg/kg of 53%. The ILS at 10 mg/kg in data set [3] (setting [6]) was 66%. Besides, in [3] (days 1-5, 10 mg/kg), the 30th-day survivor entry is “One”.

Take `CC[C@]1(O)C[C@H]2CN(CCc3c([nH]c4ccccc34)[C@@](C(=O)OC)(c3cc4c(cc3OC)N(C=O)[C@H]3[C@@](O)(C(=O)OC)[C@H](OC(C)=O)[C@]5(CC)C=CCN6CC[C@]43[C@@H]65)C2)C1` [Vincristine, reference compound]: the IC50 in [1] is less than 0.001 µM. Further, the increase in life span (ILS) at 2.7 mg/kg in [3] (Mus musculus, P388, ip, 24 h, i.p. implant, day 1, 2.7 mg/kg) came to 100%. Further, in [3] (Mus musculus, P388, ip, i.p. implant, days 1,5,9, 1.3 mg/kg), the increase in life span (ILS) at 1.3 mg/kg was found to be 181%. Also, the ILS at 0.33 mg/kg in data set [3] (Mus musculus, P388, ip, i.p. implant, days 1-9, 0.33 mg/kg) turned out to be 145%. The 40th-day survivors result in data set [3] (day 1, 2.7 mg/kg) is recorded as “Two”; in data set [3] (days 1,5,9, 1.3 mg/kg) it was “Three”; in data set [3] (days 1-9, 0.33 mg/kg) it was “Three”.

`CCOC(=O)Nc1cc2c(c(N)n1)N=C(c1ccc(C)c(C)c1)CN2` [3,4-(CH3)2 C 6 H3]: the IC50 in data set [1] worked out at 0.138 µM. The “Mitotic Index 24h” value in data set [2] (0.3 μM) is listed as 0.16. The ILS at 12.5 mg/kg in data set [3] (setting [7]) was found to be 44%.

As for `CCOC(=O)Nc1cc2c(c(N)n1)N=C(CN(C)c1ccc(C(=O)OC)cc1)CN2`, the “cytotoxicity in the KB cell culture screen” value in the data set with KB cell culture was “showed cytotoxicity”. Also, the “activity against leukemia L1210 in mice” value in the data set with leukemia L1210 is “activity against leukemia L1210 in mice”.

As to `CCOC(=O)Nc1cc2c(c(N)n1)N=C(c1ccc(F)cc1)CN2` [4-FC6 H4], in [1], the IC50 worked out at 0.0068 µM. In [2] (0.01 μM), the “Mitotic Index 12h” value was 0.47. The compound further gave an ILS at 3 mg/kg in [3] (setting [7]) of 49%.

As to `CCOC(=O)Nc1cc2c(c(N)n1)N=C(c1ccccc1)CN2` [C6 H5, Ethyl 5-Amino-1,2-dihydro-3-phenylpyrido(3,4-b)pyrazin-7-ylcarbamate], in data set [1], the IC50 is 0.0047 µM. Further, the “Mitotic Index 12h” value in data set [2] (0.03 μM) was determined as 0.65. Besides, the “Mitotic Index 24h” value in data set [2] (0.3 μM) is 0.54. The ILS at 12.5 mg/kg in [3] (Mus musculus, P388, ip, 24 h, i.p. implant, day 1, average of 2 determinations) amounted to 55%. The compound further returned an ILS at 4.5 mg/kg in data set [3] (Mus musculus, P388, ip, i.p. implant, days 1,5,9, 4.5 mg/kg) of 42%. In [3] (Mus musculus, P388, ip, i.p. implant, days 1-9, 2 mg/kg), the ILS at 2 mg/kg was found to be 51%. Also, the “activity against P388 cells resistant to vincristine (in words)” value in [4] (in mice) is “active in mice against P388 cells that were resistant to vincristine”. The “P388 % ILS” value in data set [4] (vincristine-resistant line of P388, day 1, 12 mg/kg) was 50%. In addition, the antifungal activity entry in the data set on Asperigillus niger, with Botrytis cinereae, in the data set on Penicillium italicum and in the data set on Saccharomyces cerevisiae was “active” each time.

On to `CCOC(=O)Nc1cc2c(c(N)n1)N=C(c1ccc(OC)cc1)CN2` [4-CH3 OC6 H4], for which, in data set [1], the IC50 was found to be 0.0041 µM. The “Mitotic Index 24h” value in [2] (0.3 μM) was determined as 0.27. Further, the increase in life span (ILS) at 25 mg/kg in [3] (setting [8]) was determined as 50%; in data set [3] (Mus musculus, P388, ip, i.p. implant, days 1,5,9), 63%. For the same compound, the ILS at 3 mg/kg in [3] (setting [5]) was 35%.

In the case of `CCOC(=O)Nc1cc2c(c(N)n1)N=C(c1ccccc1)C(C)N2` (centres unmarked) [C6 H5, R4 = CH3], the IC50 in [1] was found to be 0.00051 µM. The “Mitotic Index 12h” value in [2] (0.003 μM) is recorded as 0.69.

Turning to `CCOC(=O)Nc1cc2c(c(N)n1)N=C(c1ccc(Cl)cc1Cl)CN2` [2,4-Cl2 C6 H3], the IC50 in data set [1] worked out at 0.044 µM. In addition, the “Mitotic Index 24h” value in data set [2] (0.3 μM) was determined as 0.20. Further, the ILS at 12.5 mg/kg in [3] (setting [7]) worked out at 49%.

For the compound `CCOC(=O)Nc1cc2c(c(N)n1)N=C(c1ccc(N)cc1)CN2` [4-H2 NC6 H4], the IC50 in [1] was 0.023 µM. In addition, in data set [2] (0.3 μM), the “Mitotic Index 24h” value was 0.19. In data set [3] (setting [8]), this compound returned an ILS at 50 mg/kg of 35%.

With `CCOC(=O)Nc1cc2c(c(N)n1)N=C(c1ccc(C)cc1)CN2` [4-CH3 C6 H4], in data set [1], the IC50 stood at 0.024 µM. For the same compound, the “Mitotic Index 24h” value in data set [2] (0.3 μM) worked out at 0.22. Further, the ILS at 12 mg/kg in [3] (Mus musculus, P388, ip, i.p. implant, days 1-5, 12 mg/kg) is 30%.

On to `CCOC(=O)Nc1cc2c(c(N)n1)N=C(c1ccccc1)CN2C` [C6 H5, R3 = CH3], for which the IC50 in [1] worked out at 0.16 µM. Moreover, the “Mitotic Index 12h” value in [2] (0.3 μM) amounted to 0.68. In [3] (Mus musculus, P388, ip, 24 h, i.p. implant, day 1, 100 mg/kg), this compound came in with an increase in lifespan (ILS) at 100 mg/kg of 12%.

On to `COC(=O)Nc1nc2ccc(C(=O)c3cccs3)cc2[nH]1` [Nocodazole, reference compound], for which, in data set [1], the IC50 turned out to be 0.027 µM. For the same compound, in data set [2] (0.3 μM), the “Mitotic Index 24h” value was found to be 0.19.

For the compound `CCOC(=O)Nc1cc2c(c(N)n1)N=C(c1cccc(OC)c1)CN2` [3-CH3 OC6 H4], the IC50 in data set [1] is 0.00122 µM. Further, in data set [2] (0.003 μM), the “Mitotic Index 12h” value turned out to be 0.56.

As to `CCOC(=O)Nc1cc2c(c(N)n1)N=C(c1ccc(Cl)c(Cl)c1)CN2` [3,4-Cl2 C6 H3], the IC50 in data set [1] came to 0.018 µM. Besides, the “Mitotic Index 12h” value in [2] (0.01 μM) is listed as 0.69; in data set [2] (0.03 μM) it was 0.53. Moreover, the increase in life span (ILS) at 10 mg/kg in [3] (setting [6]) came out at 58%.
